Patent EP0322391A1, “New phenylalkylamine derivatives” (priority 1987, dated 1989)
Read-outs that look alike come from different tables or passages of the source.

Tested on: OTMN-induced tremor in rat
Test: Potentiation of oxotremorine (OTMN)-induced tremor in rat (potentiation of cholinergic responses)
Assay type: in vivo
Conditions: for minimal effective dose: Rattus norvegicus, ip, read-out: Potentiation of OTMN-induced tremor in rat
Method: Potentiation of cholinergic responses
Male rats (Sprague Dawley Alab Laboratorietjänst AB, Sollentuna, Sweden) weighing 150-180 g, 35-40 days of age, were used. The animals were allowed free access to food (R3, Ewos AB, Södertälje, Sweden) and water until the start of the experiments. The test compounds were injected intraperitoneally (i.p.) 30 minutes before injection of the muscarine agonist oxotremorine (OTM) into the neck (s.c.). Tremor intensity was assessed visually for a 60 minutes period following the injection of OTMN in rat housed in Macrolon cages (25x25x30 cm) (three per cage). The threshold dose of OTMN for eliciting tremor in rat is about 200 µg/kg.
Tremor intensity was scored using the following rating scale: 0 = no tremor; 1 = slight tremor (moderate, discontinuous tremor; 2 = strong tremor (intense, continuous tremor involving the whole body). The animals were scored 5, 10, 15, 30 and 60 minutes after injection of OTMN. The tremor was scored for a period of 30 seconds.
The values for each observation were summed over the entire observation period (5-60 minutes) and their median values for each group were calculated (total median score). Mann-Whitney U-test (two-tailed) was used to determine differences between the control OTMN group and test groups receiving the compounds + OTMN. […].
The lowest dose causing a significant (p<0.05) potentiation of the OTMN response was determined from log-dose response curves.

[1] = lowest dose causing a significant (p<0.05) potentiation of the OTMN response, from log-dose response curves, test compound i.p. 30 minutes before oxotremorine s.c., male Sprague Dawley rats, tremor scored 5-60 minutes

| SMILES | minimal effective dose [1] [mg/kg] | further results |
| --- | --- | --- |
| CCC(N)CC(=O)C(C)(C)Cc1ccc(F)cc1.O=C(O)C(=O)O (racemic) [Example 1, 5-amino-2,2-dimethyl-1-(4-fluorophenyl)-3-heptanone oxalate] | 0.63 |  |
| CC(N)C(=O)OC(C)(C)Cc1ccc(Cl)cc1 (centres unmarked) [Alaproclate, alaproclate, reference compound] |  | minimal effective dose: 5 mg/kg |
| CCC(N)CC(=O)C(C)(C)Cc1ccc(F)cc1 (centres unmarked) [Example 5, 5-amino-2,2-dimethyl-1-(4-fluorophenyl)-3-heptanone] | 0.63 |  |
| CCC(N)CC(=O)C(C)(C)Cc1ccc(F)cc1 (centres unmarked) [Example 6, 5-amino-2,2-dimethyl-1-(4-fluorophenyl)-3-heptanone] |  | Potentiation of OTMN-induced tremor in rat [1]: 0.63 mg/kg |
| CCC(N)CC(O)C(C)(C)Cc1ccc(F)cc1.O=C(O)C(=O)O (centres unmarked) [Example 7, 5-Amino-2,2-dimethyl-1-(4-fluorophenyl)-3-heptanol oxalate] | 2.5 |  |
| CC(C)C(N)CC(O)C(C)(C)Cc1ccc(F)cc1.O=C(O)C(=O)O (centres unmarked) [Example 8, 5-Amino-1-(4-fluorophenyl)-2,2,6-trimethyl-3-heptanol oxalate] | 10 |  |
| CCCCCC(N)CC(O)C(C)(C)Cc1ccc(F)cc1.O=C(O)C(=O)O (centres unmarked) [Example 9, 5-Amino-2,2-dimethyl-1-(4-fluorophenyl)-3-decanol oxalate] | 5 |  |
| CC(C)C(N)CC(=O)C(C)(C)Cc1ccc(F)cc1.O=C(O)C(=O)O (centres unmarked) [Example 12, 5-Amino-1-(4-fluorophenyl)-2,2,6-trimethyl-3-heptanone oxalate] | 2.5 |  |
